{
  "source": "patent US20230085307A1",
  "about": "“PYRIDAZINONE COMPOUND AND HERBICIDE” (NISSAN CHEMICAL CORPORATION, priority 2019, published 2023)",
  "key": {"[1]": {"test_system": "Japanese bulrush", "assay": "Test Example 1: herbicidal activity, application before weed generation under submerged conditions (Table 16, symbol B)", "type": "in vivo, Japanese bulrush (Schoenoplectus juncoides)", "settings": "amount of applied herbicide 320 g/ha", "how_it_was_run": "(§1)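 Submerged Wagner pots (alluvial soil, 4 cm water) sown with weed seeds and planted with 2.5-leaf rice seedlings; emulsifiable concentrate diluted in water applied to water surface on sowing day. Held in greenhouse at 25-30 °C; injury scored 0-5 by herbicidal rate after three weeks.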"}, "[2]": {"test_system": "chickweed", "assay": "Test Example 5: herbicidal effect by foliage application, plastic box (Table 20, symbol P)", "type": "in vivo, common chickweed (Stellaria media)", "settings": "foliage application, 320 g/ha, three weeks after application", "how_it_was_run": "(§2)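 Plants sown in sterilized diluvial soil and grown 14 days in a greenhouse at 25° C to 30° C, then sprayed on the foliage with the compound's emulsion diluted in water to a predetermined herbicide amount. Injury to weeds and crops scored three weeks after application on a visual rating scale.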"}, "[3]": {"test_system": "green foxtail", "assay": "Test Example 5: herbicidal effect by foliage application, plastic box (Table 20, symbol G)", "type": "in vivo, green foxtail (Setaria viridis)", "settings": "foliage application, 320 g/ha, three weeks after application", "how_it_was_run": "as §2"}, "[4]": {"test_system": "rice flat sedge", "assay": "Test Example 3: herbicidal effect by foliage application, Wagner pot (Table 18, symbol E)", "type": "in vivo, rice flat sedge (Cyperus iria)", "settings": "320 g/ha", "how_it_was_run": "(§3)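 Plants were sown in alluvial soil held under 0.1–0.5 cm standing water and grown 14 days in a greenhouse at 25–30 °C. An emulsifiable formulation, water-diluted to the set dose, was then sprayed onto the foliage, and effects were scored three weeks later using previously defined criteria.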"}, "[5]": {"test_system": "oval-leafed pondweed", "assay": "Test Example 1: herbicidal activity, application before weed generation under submerged conditions (Table 16, symbol C)", "type": "in vivo, oval-leafed pondweed (Monochoria vaginalis)", "settings": "amount of applied herbicide 320 g/ha", "how_it_was_run": "as §1"}, "[6]": {"test_system": "soybean", "assay": "Test Example 5: effect on crop by foliage application, plastic box (Table 20, symbol d)", "type": "in vivo", "settings": "320 g/ha, three weeks after application", "how_it_was_run": "as §2"}, "[7]": {"test_system": "late watergrass", "assay": "Test Example 1: herbicidal activity, application before weed generation under submerged conditions (Table 16, symbol A)", "type": "in vivo, late watergrass (Echinochloa oryzicola)", "settings": "amount of applied herbicide 320 g/ha", "how_it_was_run": "as §1"}, "[8]": {"test_system": "directly sowed rice", "assay": "Test Example 3: effect on crop by foliage application, Wagner pot (Table 18, symbol b)", "type": "in vivo", "settings": "320 g/ha", "how_it_was_run": "as §3"}, "[9]": {"test_system": "barnyard grass", "assay": "Test Example 5: herbicidal effect by foliage application, plastic box (Table 20, symbol H)", "type": "in vivo, barnyard grass (Echinochloa crus-galli)", "settings": "foliage application, 320 g/ha, three weeks after application", "how_it_was_run": "as §2"}, "[10]": {"test_system": "blackgrass", "assay": "Test Example 5: herbicidal effect by foliage application, plastic box (Table 20, symbol J)", "type": "in vivo, blackgrass (Alopecurus myosuroides)", "settings": "foliage application, 320 g/ha, three weeks after application", "how_it_was_run": "as §2"}, "[11]": {"test_system": "Italian ryegrass", "assay": "Test Example 5: herbicidal effect by foliage application, plastic box (Table 20, symbol K)", "type": "in vivo, Italian ryegrass (Lolium multiflorum)", "settings": "foliage application, 320 g/ha, three weeks after application", "how_it_was_run": "as §2"}, "[12]": {"test_system": "persian speedwell", "assay": "Test Example 5: herbicidal effect by foliage application, plastic box (Table 20, symbol R)", "type": "in vivo, Persian speedwell (Veronica persica)", "settings": "foliage application, 320 g/ha, three weeks after application", "how_it_was_run": "as §2"}, "[13]": {"test_system": "barnyard grass", "assay": "Test Example 3: herbicidal effect by foliage application, Wagner pot (Table 18, symbol H)", "type": "in vivo, barnyard grass (Echinochloa crus-galli)", "settings": "320 g/ha", "how_it_was_run": "as §3"}, "[14]": {"test_system": "corn", "assay": "Test Example 5: effect on crop by foliage application, plastic box (Table 20, symbol c)", "type": "in vivo", "settings": "320 g/ha, three weeks after application", "how_it_was_run": "as §2"}, "[15]": {"test_system": "velvetleaf", "assay": "Test Example 5: herbicidal effect by foliage application, plastic box (Table 20, symbol M)", "type": "in vivo, velvetleaf (Abutilon theophrasti)", "settings": "foliage application, 320 g/ha, three weeks after application", "how_it_was_run": "as §2"}, "[16]": {"test_system": "wild oat", "assay": "Test Example 5: herbicidal effect by foliage application, plastic box (Table 20, symbol I)", "type": "in vivo, wild oat (Avena fatua)", "settings": "foliage application, 320 g/ha, three weeks after application", "how_it_was_run": "as §2"}, "[17]": {"test_system": "beet", "assay": "Test Example 5: effect on crop by foliage application, plastic box (Table 20, symbol f)", "type": "in vivo", "settings": "320 g/ha, three weeks after application", "how_it_was_run": "as §2"}, "[18]": {"test_system": "redroot pigweed", "assay": "Test Example 5: herbicidal effect by foliage application, plastic box (Table 20, symbol N)", "type": "in vivo, redroot pigweed (Amaranthus retroflexus)", "settings": "foliage application, 320 g/ha, three weeks after application", "how_it_was_run": "as §2"}, "[19]": {"test_system": "southern crabgrass", "assay": "Test Example 5: herbicidal effect by foliage application, plastic box (Table 20, symbol F)", "type": "in vivo, southern crabgrass (Digitaria ciliaris)", "settings": "foliage application, 320 g/ha, three weeks after application", "how_it_was_run": "as §2"}, "[20]": {"test_system": "transplanted rice", "assay": "Test Example 1: effect on crop, application before weed generation under submerged conditions (Table 16, symbol a)", "type": "in vivo", "settings": "amount of applied herbicide 320 g/ha", "description": "[Test Example 1] Herbicidal Activity Test by Application before Weed Generation under Submerged Conditions After alluvial soil was placed into 1/10000 are of Wagner pot, water was poured and mixed to form a submerged condition having a water depth of 4 cm. Seeds of late watergrass, Japanese bulrush, and oval-leafed pondweed were sowed in a mixed manner in the aforementioned pot, and then 2.5 leaf stage rice plant seedlings were transplanted thereto. On the day of sowing seeds, the emulsion agent of the compound of the present invention prepared according to Formulation Example 2 was diluted with water so as to achieve a predetermined herbicide amount, and the diluted emulsion agent was applied to the surface of the water. The pot was placed in a greenhouse at 25° C. to 30° C. for growth of the plants. Three weeks after the herbicide application, the effect of the herbicide on each plant was evaluated according to the following criteria. Evaluation Criteria 5: Herbicidal rate of 90% or more (almost completely withered) 4: Herbicidal rate of 70% or more and less than 90% 3: Herbicidal rate of 40% or more and less than 70% 2: Herbicidal rate of 20% or more and less than 40% 1: Herbicidal rate of 5% or more and less than 20% 0: Herbicidal rate of 5% or less (almost no effect)"}, "[21]": {"test_system": "wheat", "assay": "Test Example 5: effect on crop by foliage application, plastic box (Table 20, symbol e)", "type": "in vivo", "settings": "320 g/ha, three weeks after application", "how_it_was_run": "as §2"}, "[22]": {"test_system": "Chinese sprangletop", "assay": "Test Example 3: herbicidal effect by foliage application, Wagner pot (Table 18, symbol D)", "type": "in vivo, chinese sprangletop (Leptochloa chinensis)", "settings": "320 g/ha", "how_it_was_run": "as §3"}, "[23]": {"test_system": "windgrass", "assay": "Test Example 5: herbicidal effect by foliage application, plastic box (Table 20, symbol L)", "type": "in vivo, windgrass (Apera spica-venti)", "settings": "foliage application, 320 g/ha, three weeks after application", "how_it_was_run": "as §2"}, "[24]": {"test_system": "lambsquarters", "assay": "Test Example 5: herbicidal effect by foliage application, plastic box (Table 20, symbol O)", "type": "in vivo, lambsquarters (Chenopodium album)", "settings": "foliage application, 320 g/ha, three weeks after application", "how_it_was_run": "as §2"}, "[25]": {"test_system": "rapeseed", "assay": "Test Example 5: effect on crop by foliage application, plastic box (Table 20, symbol g)", "type": "in vivo", "settings": "320 g/ha, three weeks after application", "how_it_was_run": "as §2"}},
  "data": [
    {"smiles": "COc1ccc2c(-c3c(O)c(N(Cc4ccccc4)Cc4ccccc4)nn(C)c3=O)c(-c3ccccc3OC)sc2c1", "note": "[Compound No. 3-086, 6-(dibenzylamino)-5-hydroxy-4-(6-methoxy-2-(2-methoxyphenyl)benzo[b]thiophen-3-yl)-2-methylpyridazin-3(2H)-one]", "values": [
      {"measurement": "Herbicidal effect, B: Japanese bulrush", "setting": "[1]", "value": "2 (Herbicidal rate of 20% or more and less than 40%)"},
      {"measurement": "P: chickweed, herbicidal effect grade", "setting": "[2]", "value": "0 (Herbicidal rate of 5% or less (almost no effect))"},
      {"measurement": "G: green foxtail, herbicidal effect grade", "setting": "[3]", "value": "0 (Herbicidal rate of 5% or less (almost no effect))"},
      {"measurement": "herbicidal effect on rice flat sedge (E)", "setting": "[4]", "value": "0 (Herbicidal rate of 5% or less (almost no effect))"},
      {"measurement": "Herbicidal effect, C: oval-leafed pondweed", "setting": "[5]", "value": "0 (Herbicidal rate of 5% or less (almost no effect))"},
      {"measurement": "d: soybean, effect on crop grade", "setting": "[6]", "value": "3 (Herbicidal rate of 40% or more and less than 70%)"},
      {"measurement": "Herbicidal effect, A: late watergrass", "setting": "[7]", "value": "0 (Herbicidal rate of 5% or less (almost no effect))"},
      {"measurement": "effect on directly sowed rice (b)", "setting": "[8]", "value": "0 (Herbicidal rate of 5% or less (almost no effect))"},
      {"measurement": "H: barnyard grass, herbicidal effect grade", "setting": "[9]", "value": "0 (Herbicidal rate of 5% or less (almost no effect))"},
      {"measurement": "J: blackgrass, herbicidal effect grade", "setting": "[10]", "value": "3 (Herbicidal rate of 40% or more and less than 70%)"},
      {"measurement": "K: Italian ryegrass, herbicidal effect grade", "setting": "[11]", "value": "0 (Herbicidal rate of 5% or less (almost no effect))"},
      {"measurement": "melting point", "value": "163 to 166", "unit": "°C"},
      {"measurement": "R: persian speedwell, herbicidal effect grade", "setting": "[12]", "value": "0 (Herbicidal rate of 5% or less (almost no effect))"},
      {"measurement": "herbicidal effect on barnyard grass (H)", "setting": "[13]", "value": "3 (Herbicidal rate of 40% or more and less than 70%)"},
      {"measurement": "c: corn, effect on crop grade", "setting": "[14]", "value": "0 (Herbicidal rate of 5% or less (almost no effect))"},
      {"measurement": "M: velvetleaf, herbicidal effect grade", "setting": "[15]", "value": "0 (Herbicidal rate of 5% or less (almost no effect))"},
      {"measurement": "I: wild oat, herbicidal effect grade", "setting": "[16]", "value": "0 (Herbicidal rate of 5% or less (almost no effect))"},
      {"measurement": "f: beet, effect on crop grade", "setting": "[17]", "value": "0 (Herbicidal rate of 5% or less (almost no effect))"},
      {"measurement": "N: redroot pigweed, herbicidal effect grade", "setting": "[18]", "value": "5 (Herbicidal rate of 90% or more (almost completely withered))"},
      {"measurement": "F: southern crabgrass, herbicidal effect grade", "setting": "[19]", "value": "0 (Herbicidal rate of 5% or less (almost no effect))"},
      {"measurement": "Effect on crop, a: transplanted rice", "setting": "[20]", "value": "0 (Herbicidal rate of 5% or less (almost no effect))"},
      {"measurement": "e: wheat, effect on crop grade", "setting": "[21]", "value": "0 (Herbicidal rate of 5% or less (almost no effect))"},
      {"measurement": "herbicidal effect on Chinese sprangletop (D)", "setting": "[22]", "value": "0 (Herbicidal rate of 5% or less (almost no effect))"},
      {"measurement": "L: windgrass, herbicidal effect grade", "setting": "[23]", "value": "0 (Herbicidal rate of 5% or less (almost no effect))"},
      {"measurement": "O: lambsquarters, herbicidal effect grade", "setting": "[24]", "value": "1 (Herbicidal rate of 5% or more and less than 20%)"},
      {"measurement": "g: rapeseed, effect on crop grade", "setting": "[25]", "value": "5 (Herbicidal rate of 90% or more (almost completely withered))"}
    ]}
  ]
}
